Measured values published in US7160888B2, “[1,8]naphthyridin-2-ones and related compounds for the treatment of schizophrenia” (Warner Lambert Company LLC, priority 2003, dated 2007).

target: D2 receptor (Homo sapiens, UniProt P14416); experiment: [3H]Thymidine uptake assay for D2 intrinsic activity; type: cell-based; set-up: Emax: dose or concentration left out as unconfirmed; settings: Table 1; test compound 1 μM; 1 μM Quinpirole = 100% intrinsic activity
Sequence (P14416 whole entry): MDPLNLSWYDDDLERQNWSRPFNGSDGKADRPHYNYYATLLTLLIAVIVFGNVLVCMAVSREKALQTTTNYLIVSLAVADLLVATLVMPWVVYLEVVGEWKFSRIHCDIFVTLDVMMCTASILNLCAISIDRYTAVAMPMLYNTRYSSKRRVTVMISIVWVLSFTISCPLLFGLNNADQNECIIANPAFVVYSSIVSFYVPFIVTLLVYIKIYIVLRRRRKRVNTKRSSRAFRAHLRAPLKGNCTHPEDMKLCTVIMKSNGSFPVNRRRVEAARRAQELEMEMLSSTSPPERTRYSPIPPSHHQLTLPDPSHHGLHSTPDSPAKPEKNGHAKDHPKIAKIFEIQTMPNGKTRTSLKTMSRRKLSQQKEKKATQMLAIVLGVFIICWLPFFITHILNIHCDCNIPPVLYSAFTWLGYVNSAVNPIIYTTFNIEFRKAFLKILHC

| Structure (SMILES) | Emax at 1 µM [%] |
| --- | --- |
| CC(F)(F)c1ccccc1N1CCN(CCCCOc2ccc3c(n2)NC(=O)CC3)CC1 [Example A42, 7-(4-{4-[2-(1,1-Difluoro-ethyl)-phenyl]-piperazin-1-yl}-butoxy)-3,4-dihydro-1H-[1,8]naphthyridin-2-one] | 28 |
| CCc1cccc(N2CCN(CCCCOc3ccc4c(n3)NC(=O)CC4)CC2)n1 [Example A45, 7-{4-[4-(6-Ethyl-pyridin-2-yl)-piperazin-1-yl]-butoxy}-3,4-dihydro-1H-[1,8]naphthyridin-2-one] | 34 |
| O=C1CCc2ccc(OCCCCN3CCN(c4ccc(F)cc4Cl)CC3)nc2N1 [Example A9, 7-{4-[4-(2-Chloro-4-fluoro-phenyl)-piperazin-1-yl]-butoxy}-3,4-dihydro-1H-[1,8]naphthyridin-2-one] | 9 |
| O=c1ccc2cnc(OCCCCN3CCN(c4cccc5ccc(F)cc45)CC3)cc2[nH]1 [Example I17, 7-{4-[4-(7-Fluoro-naphthalen-1-yl)-piperazin-1-yl]-butoxy}-1H-[1,6]naphthyridin-2-one] | 32 |
| O=c1[nH]c2nc(OCCCCN3CCN(c4cccc5ccccc45)CC3)ccc2cc1CC(F)(F)F [Example D11, 7-[4-(4-Naphthalen-1-yl-piperazin-1-yl)-butoxy]-3-(2,2,2-trifluoro-ethyl)-1H-[1,8]naphthyridin-2-one] | 30 |
| CC(C)Oc1ccccc1N1CCN(CCCCOc2ncc3ccc(=O)[nH]c3n2)CC1 [Example H2, 2-{4-[4-(2-Isopropoxy-phenyl)-piperazin-1-yl]-butoxy}-8H-pyrido[2,3-d]pyrimidin-7-one] | 22 |
| O=c1ccc2ccc(OCCCN3CCN(c4cccc(Cl)c4Cl)CC3)nc2[nH]1 [Example C1, 7-{3-[4-(2,3-Dichloro-phenyl)-piperazin-1-yl]-propoxy}-1H-[1,8]naphthyridin-2-one] | 43 |
| O=C1CCc2ccc(OCCCCN3CCN(c4cccc5cc(Cl)ccc45)CC3)nc2N1 [Example A76, 7-{4-[4-(6-Chloro-naphthalen-1-yl)-piperazin-1-yl]-butoxy}-3,4-dihydro-1H-[1,8]naphthyridin-2-one] | 16 |
| CCc1ccccc1N1CCN(CCCCOc2ccc3c(n2)NC(=O)CC3)CC1 [Example A35, 7-{4-[4-(2-Ethyl-phenyl)-piperazin-1-yl]-butoxy}-3,4-dihydro-1H-[1,8]naphthyridin-2-one] | 24 |
| CC(=O)c1ccc2cccc(N3CCN(CCCCOc4ccc5ccc(=O)[nH]c5n4)CC3)c2c1 [Example B62, 7-{4-[4-(7-Acetyl-naphthalen-1-yl)-piperazin-1-yl]-butoxy}-1H-[1,8]naphthyridin-2-one] | 21 |
| Cc1cc(N2CCN(CCCCOc3ccc4ccc(=O)[nH]c4n3)CC2)c(Cl)cc1F [Example B7, 7-{4-[4-(2-Chloro-4-fluoro-5-methyl-phenyl)-piperazin-1-yl]-butoxy}-1H-[1,8]naphthyridin-2-one] | 28 |
| CC(C)Oc1ccccc1N1CCN(CCCCOc2ccc3ccc(=O)[nH]c3n2)CC1 [Example B10, 7-{4-[4-(2-Isopropoxy-phenyl)-piperazin-1-yl]-butoxy}-1H-[1,8]naphthyridin-2-one] | 34 |
| CC1CC(=O)Nc2nc(OCCCCN3CCN(c4cccc(Cl)c4Cl)CC3)ccc21 (single isomer, unassigned) [Example D2a, 7-{4-[4-(2,3-Dichloro-phenyl)-piperazin-1-yl]-butoxy}-4-methyl-3,4-dihydro-1H-[1,8]naphthyridin-2-one] | 20 |
| O=c1ccc2ccc(OCCCCN3CCN(c4ccc(F)cc4Cl)CC3)nc2[nH]1 [Example B23, 7-{4-[4-(2-Chloro-4-fluoro-phenyl)-piperazin-1-yl]-butoxy}-1H-[1,8]naphthyridin-2-one] | 15 |
| CCc1cccc(N2CCN(CCCCCc3ccc4c(n3)NC(=O)CC4)CC2)n1 [Example C17, 7-{5-[4-(6-Ethyl-pyridin-2-yl)-piperazin-1-yl]-pentyl}-3,4-dihydro-1H-[1,8]naphthyridin-2-one] | 21 |
| CC(F)(F)c1ccccc1N1CCN(CCCCOc2ccc3ccc(=O)[nH]c3n2)CC1 [Example B17, 7-(4-{4-[2-(1,1-Difluoro-ethyl)-phenyl]-piperazin-1-yl}-butoxy)-1H-[1,8]naphthyridin-2-one] | 43 |
| Cc1cc(OCCCCN2CCN(c3cccc(Cl)c3Cl)CC2)nc2c1CCC(=O)N2 [Example E9, 7-{4-[4-(2,3-Dichloro-phenyl)-piperazin-1-yl]-butoxy}-5-methyl-3,4-dihydro-1H-[1,8]naphthyridin-2-one] | 34 |
| Cc1cc(OCCCCN2CCN(c3cccc4c3CCC4)CC2)nc2c1CCC(=O)N2 [Example E12, 7-[4-(4-Indan-4-yl-piperazin-1-yl)-butoxy]-5-methyl-3,4-dihydro-1H-[1,8]naphthyridin-2-one] | 39 |
| O=C1CCc2cc(Cl)c(OCCCCN3CCN(c4cccc5ccccc45)CC3)nc2N1 [Example E6, 6-Chloro-7-[4-(4-naphthalen-1-yl-piperazin-1-yl)-butoxy]-3,4-dihydro-1H-[1,8]naphthyridin-2-one] | 32 |
| O=C1CCc2cc(F)c(OCCCCN3CCN(c4cccc5ccccc45)CC3)nc2N1 [Example E4, 6-Fluoro-7-[4-(4-naphthalen-1-yl-piperazin-1-yl)-butoxy]-3,4-dihydro-1H-[1,8]naphthyridin-2-one] | 38 |
| CC1(C)CC(=O)Nc2nc(OCCCCN3CCN(c4cccc5c4CCCC5)CC3)ccc21 [Example D18, 4,4-Dimethyl-7-{4-[4-(5,6,7,8-tetrahydro-naphthalen-1-yl)-piperazin-1-yl]-butoxy}-3,4-dihydro-1H-[1,8]naphthyridin-2-one] | 37 |
| O=C1CCc2ccc(OCCCCN3CCN(c4ccccn4)CC3)nc2N1 [Example A43, 7-[4-(4-Pyridin-2-yl-piperazin-1-yl)-butoxy]-3,4-dihydro-1H-[1,8]naphthyridin-2-one] | 75 |

same assay, conditions: Table 2; test compound 1 μM; 1 μM Quinpirole = 100% intrinsic activity

| Structure (SMILES) | Emax at 1 µM [%] |
| --- | --- |
| O=C1NCc2ccc(OCCCCN3CCN(c4cccc5c4OCC5)CC3)nc2N1 [Example E3′, 7-{4-[4-(2,3-Dihydro-benzofuran-7-yl)-piperazin-1-yl]-butoxy}-3,4-dihydro-1H-pyrido[2,3-d]pyrimidin-2-one] | 8 |
| CC1(C)CC(=O)Nc2nc(OCCCCN3CCN(c4cccc5c4OCCO5)CC3)ccc21 [Example C2′, 7-{4-[4-(2,3-Dihydro-benzo[1,4]dioxin-5-yl)-piperazin-1-yl]-butoxy}-4,4-dimethyl-3,4-dihydro-1H-[1,8]naphthyridin-2-one] | 22 |
| Cc1ccc2cccc(N3CCN(CCCCOc4ccc5c(n4)NC(=O)CC5)CC3)c2n1 [Example A40′, 7-{4-[4-(2-Methyl-quinolin-8-yl)-piperazin-1-yl]-butoxy}-3,4-dihydro-1H-[1,8]naphthyridin-2-one] | 30 |
| O=C1CCc2cnc(OCCCCN3CCN(c4cccc5c4OC(F)(F)C(F)(F)O5)CC3)cc2N1 [Example H3′, 7-{4-[4-(2,2,3,3-Tetrafluoro-2,3-dihydro-benzo[1,4]dioxin-5-yl)-piperazin-1-yl]-butoxy}-3,4-dihydro-1H-[1,6]naphthyridin-2-one] | 22 |
| CN1C(=O)CCc2cccc(N3CCN(CCCCOc4ccc5ccc(=O)[nH]c5n4)CC3)c21 [Example B38′, 7-{4-[4-(1-Methyl-2-oxo-1,2,3,4-tetrahydro-quinolin-8-yl)-piperazin-1-yl]-butoxy}-1H-[1,8]naphthyridin-2-one] | 46 |
| O=c1ccc2ccc(OCCCCN3CCN(c4cccc5c4OC(F)(F)O5)CC3)nc2[nH]1 [Example B13′, 7-{4-[4-(2,2-Difluoro-benzo[1,3]dioxol-4-yl)-piperazin-1-yl]-butoxy}-1H-[1,8]naphthyridin-2-one] | 33 |
| O=c1ncc2ccc(OCCCCN3CCN(c4cccc5c4OCCC5)CC3)nc2[nH]1 [Example E1′, 7-[4-(4-Chroman-8-yl-piperazin-1-yl)-butoxy]-1H-pyrido[2,3-d]pyrimidin-2-one] | 12 |
| O=C1CCc2ccc(OCCCCN3CCN(c4cccc5cnccc45)CC3)nc2N1 [Example A37′, 7-[4-(4-Isoquinolin-5-yl-piperazin-1-yl)-butoxy]-3,4-dihydro-1H-[1,8]naphthyridin-2-one] | 45 |
| O=C1NCc2ccc(OCCCCN3CCN(c4cccc5c4OCCCO5)CC3)nc2N1 [Example E4′, 7-{4-[4-(3,4-Dihydro-2H-benzo[b][1,4]dioxepin-6-yl)-piperazin-1-yl]-butoxy}-3,4-dihydro-1H-pyrido[2,3-d]pyrimidin-2-one] | 26 |
| O=C1CCc2ccc(OCCCCN3CCN(c4cccc5ccoc45)CC3)nc2N1 [Example A23′, 7-[4-(4-Benzofuran-7-yl-piperazin-1-yl)-butoxy]-3,4-dihydro-1H-[1,8]naphthyridin-2-one] | 39 |
| O=c1ccc2ccc(OCCCCN3CCN(c4cccc5cccnc45)CC3)nc2[nH]1 [Example B21′, 7-[4-(4-Quinolin-8-yl-piperazin-1-yl)-butoxy]-1H-[1,8]naphthyridin-2-one] | 18 |
| O=c1ccc2ccc(OCCCCN3CCN(c4cccc5ccoc45)CC3)nc2[nH]1 [Example B26′, 7-[4-(4-Benzofuran-7-yl-piperazin-1-yl)-butoxy]-1H-[1,8]naphthyridin-2-one] | 26 |
| CC1(C)Cc2cccc(N3CCN(CCCCOc4ccc5ccc(=O)[nH]c5n4)CC3)c2O1 [Example B9′, 7-{4-[4-(2,2-Dimethyl-2,3-dihydro-benzofuran-7-yl)-piperazin-1-yl]-butoxy}-1H-[1,8]naphthyridin-2-one] | 40 |
| O=c1ccc2ccc(OCCCCN3CCN(c4cccc5c4CCO5)CC3)nc2[nH]1 [Example B11′, 7-{4-[4-(2,3-Dihydro-benzofuran-4-yl)-piperazin-1-yl]-butoxy}-1H-[1,8]naphthyridin-2-one] | 21 |

same assay, conditions: read-out: D2 Intrinsic Activity (%)

| Structure (SMILES) | Emax [%] |
| --- | --- |
| O=C1CCc2cnc(OCCCCN3CCN(c4cccc5ccc(F)cc45)CC3)cc2N1 [Example I6, 7-{4-[4-(7-Fluoro-naphthalen-1-yl)-piperazin-1-yl]-butoxy}-3,4-dihydro-1H-[1,6]naphthyridin-2-one] | 24 |
